Reference: PubChem BioAssay AID588659 (The Scripps Research Institute Molecular Screening Center, 2011)
Activity calls are given as the source filed them.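 Rule for the calls: active = change in p38 protein level versus solvent-only treated cells of at least 30%, down or up; inactive = change under 30% either way.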

Legend:
[1] = molecular target: Mitogen-activated protein kinase 14 (Homo sapiens) (UniProt Q16539); assay: total p38 protein level change, either direction, late-stage follow-up, counter-screen for KLF5 inhibitor project, HT29 cells, chemiluminescent western blot, powder samples (AID 588659); conditions: HT29 cells, p38 western blot, 24 h; at 10 µM; stronger effect = higher value
[2] = test system: HT29 cells, p38 western blot, 24 h; assay: as above; conditions: measured here: p38 band fold change vs DMSO; at 10 µM

Mitogen-activated protein kinase 14 (Homo sapiens), sequence (Q16539 whole entry, looked up): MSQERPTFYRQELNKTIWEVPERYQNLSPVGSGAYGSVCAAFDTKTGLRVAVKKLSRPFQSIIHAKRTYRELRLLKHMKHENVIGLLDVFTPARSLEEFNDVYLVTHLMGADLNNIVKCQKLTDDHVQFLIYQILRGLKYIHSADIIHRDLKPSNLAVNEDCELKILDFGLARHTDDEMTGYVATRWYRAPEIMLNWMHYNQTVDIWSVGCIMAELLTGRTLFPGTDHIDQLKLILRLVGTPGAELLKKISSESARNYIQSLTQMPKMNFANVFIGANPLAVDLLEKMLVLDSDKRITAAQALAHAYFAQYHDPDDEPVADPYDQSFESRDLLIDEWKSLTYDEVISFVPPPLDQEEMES

Row | SMILES | inhibition [1] | fold change [2]
1 | CN(C(=O)COC(=O)/C=C/c1cccc([N+](=O)[O-])c1)C1CCS(=O)(=O)C1 (centres undefined) | 14.3% (inactive) | 
2 | CN(C(=O)CNC(=O)/C=C/c1cccc(Cl)c1)C1CCS(=O)(=O)C1 (centres undefined) | -2.37% (inactive) | 1.02
3 | CN(C(=O)CNC(=O)/C=C/c1cccc(Cl)c1)C1CCS(=O)(=O)CC1 | 10.2% (inactive) | 
